Source: ChEMBL document CHEMBL1137558, “Synthesis and biological evaluation of new 2-arylcarbonyl-3-trifluoromethylquinoxaline 1,4-di-N-oxide derivatives and their reduced analogues” (2007)

What was measured:
[1] = Anticancer activity against leukemia cells; type: functional; details: Homo sapiens, Leukemia cell
[2] = Anticancer activity against prostate cancer cells; type: functional; details: Homo sapiens, Cancer cell lines
[3] = Anticancer activity against melanoma cells; type: functional; details: Homo sapiens, Melanoma cell
[4] = Anticancer activity against nonsmall lung cancer cells; type: functional; details: Homo sapiens, Cancer cell lines
[5] = Anticancer activity against breast cancer cells; type: functional; details: Homo sapiens, Cancer cell lines
[6] = Anticancer activity against ovarian cancer cells; type: functional; details: Homo sapiens, Cancer cell lines
[7] = Anticancer activity against renal cancer cells; type: functional; details: Homo sapiens, Cancer cell lines
[8] = Anticancer activity against CNS cancer cells; type: functional; details: Homo sapiens, Cancer cell lines
[9] = Anticancer activity against human NCI60 cells; type: functional; details: for CC50: read-out: LC50 (the source's name)
[10] = Anticancer activity against colon cancer cells; type: functional; details: Homo sapiens, Cancer cell lines
SF-268 = assay: Growth inhibition of SF268 cells at 100 uM after 48 hrs; type: functional, Homo sapiens; parameters: scale not given: the % may be the effect or the level left
MCF7 = assay: Growth inhibition of MCF7 cells at 100 uM after 48 hrs; type: functional, Homo sapiens; parameters: scale not given: the % may be the effect or the level left
MOLT-4 = assay: Anticancer activity against MOLT4 cells; type: functional; details: Homo sapiens
CCRF-CEM = assay: Anticancer activity against CCRF-CEM cells; type: functional; details: Homo sapiens
SR = assay: Anticancer activity against SR cells; type: functional; details: Homo sapiens
HL-60 = assay: Anticancer activity against HL60 cells; type: functional; details: Homo sapiens
K562 = assay: Anticancer activity against K562 cells; type: functional; details: Homo sapiens
NCI-H460 = assay: Growth inhibition of NCI-H460 cells at 100 uM after 48 hrs; type: functional, Homo sapiens; parameters: scale not given: the % may be the effect or the level left

Row | SMILES | GI50 [1] [nM] | GI50 [2] [nM] | GI50 [3] [nM] | GI50 [4] [nM] | GI50 [5] [nM] | GI50 [6] [nM] | GI50 [7] [nM] | GI50 [8] [nM] | GI50 [9] [nM] | TGI [9] [nM] | CC50 [9] [µM] | GI50 [10] [nM] | Activity (SF-268) [%] | Activity (MCF7) [%] | GI50 (MOLT-4) [nM] | GI50 (CCRF-CEM) [nM] | GI50 (SR) [nM] | GI50 (HL-60) [nM] | GI50 (K562) [nM] | Activity (NCI-H460) [%]
1 | O=C(c1ccc2ccccc2c1)c1c(C(F)(F)F)[n+]([O-])c2ccc(Cl)cc2[n+]1[O-] | 650 | 1480 | 1230 | 1510 | 1150 | 1200 | 1380 | 1470 | 1230 | 2630 | 5.5 | 1290 | – | – | – | – | – | – | – | –
2 | O=C(c1ccc2ccccc2c1)c1c(C(F)(F)F)[n+]([O-])c2cc(C(F)(F)F)ccc2[n+]1[O-] | 1200 | 1510 | 1480 | 1780 | 1670 | 1690 | 1550 | 1720 | 1580 | 3470 | 9.33 | 1730 | – | – | – | – | – | – | – | –
3 | O=C(c1ccc2ccccc2c1)c1c(C(F)(F)F)[n+]([O-])c2ccc(C(F)(F)F)cc2[n+]1[O-] | 260 | 570 | 970 | 1420 | 990 | 470 | 580 | 950 | 720 | 1910 | 5.5 | 660 | – | – | – | – | – | – | – | –
4 | O=C(c1ccc2ccccc2c1)c1c(C(F)(F)F)[n+]([O-])c2cc(F)c(F)cc2[n+]1[O-] | 770 | 1460 | 2500 | 3470 | 2360 | 3800 | 2180 | 2510 | 2190 | 6460 | 23.4 | 1710 | – | – | – | – | – | – | – | –
5 | O=C(c1ccc2ccccc2c1)c1c(C(F)(F)F)[n+]([O-])c2cc(Cl)c(Cl)cc2[n+]1[O-] | 1580 | 1550 | 1570 | 1700 | 1620 | 1510 | 1640 | 1630 | 1580 | 3160 | 6.17 | 1550 | – | – | – | – | – | – | – | –
6 | O=C(c1ccco1)c1c(C(F)(F)F)[n+]([O-])c2ccc(F)cc2[n+]1[O-] | 300 | 2600 | 1560 | 3130 | 1330 | 2030 | 2410 | 2350 | 1620 | 4270 | 15.8 | 1060 | 82 | 72 | – | – | – | – | – | –
7 | O=C(c1cccs1)c1c(C(F)(F)F)[n+]([O-])c2cc(C(F)(F)F)ccc2[n+]1[O-] | 30 | 150 | 330 | 300 | 180 | 200 | 240 | 180 | 180 | 470 | 1.48 | 150 | – | – | 20 | 70 | 20 | < 10 | – | –
8 | O=C(c1ccccc1)c1c(C(F)(F)F)[n+]([O-])c2cc(C(F)(F)F)ccc2[n+]1[O-] | 770 | 1320 | 1230 | 1660 | 1410 | 1180 | 1470 | 1710 | 1290 | 2950 | 8.32 | 1710 | – | – | – | – | – | – | – | –
9 | O=C(c1ccccc1)c1c(C(F)(F)F)[n+]([O-])c2ccc(F)cc2[n+]1[O-] | 230 | 530 | 950 | 800 | 730 | 1340 | 1140 | 1450 | 780 | 2510 | 9.12 | 540 | – | – | – | – | – | – | – | –
10 | O=C(c1ccccc1)c1c(C(F)(F)F)[n+]([O-])c2ccc(C(F)(F)F)cc2[n+]1[O-] | 240 | 270 | 1130 | 640 | 540 | 580 | 330 | 690 | 510 | 1230 | 3.89 | 460 | – | – | – | – | – | – | – | –
11 | O=C(c1cccs1)c1c(C(F)(F)F)[n+]([O-])c2cc(Cl)c(Cl)cc2[n+]1[O-] | 20 | 790 | 940 | 2040 | 790 | 1160 | 1600 | 670 | 740 | 3020 | 11 | 590 | – | – | < 10 | < 10 | < 10 | – | < 10 | –
12 | COc1ccc2c(c1)[n+]([O-])c(C(=O)c1ccc3ccccc3c1)c(C(F)(F)F)[n+]2[O-] | – | – | – | 800 | – | – | – | – | – | – | – | – | <32 | <32 | – | – | – | – | – | <32
13 | O=C(c1cccs1)c1c(C(F)(F)F)[n+]([O-])c2ccccc2[n+]1[O-] | 13900 | 400 | 1390 | 350 | 850 | 750 | 480 | 1450 | 980 | 3890 | 11.2 | 830 | – | – | – | – | – | – | – | –
14 | O=C(c1ccc2ccccc2c1)c1c(C(F)(F)F)[n+]([O-])c2ccc(F)cc2[n+]1[O-] | 440 | 1620 | 1120 | 1540 | 1700 | 1200 | 1480 | 1610 | 1150 | 2820 | 8.32 | 740 | – | – | – | – | – | – | – | –
15 | Cc1cc2c(cc1C)[n+]([O-])c(C(F)(F)F)c(C(=O)c1cccs1)[n+]2[O-] | 2710 | 3890 | 3990 | 2810 | 3080 | 2340 | 4620 | 3050 | 3470 | 17400 | 61.7 | 5310 | – | – | – | – | – | – | – | –
